# Target: T1, EP2 receptor (Homo sapiens, UniProt P43116)
# T1 construct: expressed in transfected cells; host or cells: CHO-K1 cells (ATCC), transient transfection with FuGENE 6
# Experiment: EP2 Potency Assay (cAMP TR-FRET, CHO-K1 cells transfected with EP2 receptor, PGE2 at EC80)
# Type: cell-based
# Conditions: CHO-K1 cells expressing EP2, prostaglandin E2 at EC80, read-out: EP2 Potency (IC50 category)
# Protocol: Compound potency was measured using a cAMP TR-FRET assay.
# After 6 hours incubation, the cell media was replaced with F12 medium supplemented with 10% FBS and 100 U/ml Pen-Strep. 24 hours after transfection, cells were harvested and seeded at a density of 3000 cells/well in a 384 well plate to perform the cAMP assay, using the LANCE Ultra cAMP assay kit (PerkinElmer).
# Plates were then centrifuged at 1000 rpm for 1 min, agitated at 600 rpm at R.T. for 2 min, and incubated at 25° C. for 5 min. The reference agonist, prostaglandin E2 (MCE), was added to each well at the appropriate concentration to reach its EC80 value. Plates were then centrifuged at 1000 rpm for 1 min, agitated at 600 rpm at R.T. for 2 min, and incubated at 25° C. for 30 min.
# A dose-response curve was prepared by plotting percent inhibition for each compound concentration, and then IC50 was calculated by fitting a curve to the plotted values and extrapolating the IC50 concentration.
# T1 sequence (P43116 whole entry): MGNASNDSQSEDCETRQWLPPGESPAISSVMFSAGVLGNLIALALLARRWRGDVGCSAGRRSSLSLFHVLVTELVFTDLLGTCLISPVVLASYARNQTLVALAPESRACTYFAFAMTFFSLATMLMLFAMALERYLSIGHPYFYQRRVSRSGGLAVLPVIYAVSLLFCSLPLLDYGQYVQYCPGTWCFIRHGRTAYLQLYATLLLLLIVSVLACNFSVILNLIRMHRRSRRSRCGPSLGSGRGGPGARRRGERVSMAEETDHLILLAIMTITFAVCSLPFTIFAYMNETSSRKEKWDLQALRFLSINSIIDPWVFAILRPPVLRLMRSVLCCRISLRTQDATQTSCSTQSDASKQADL
row,SMILES,IC50
1,"COc1cc(C(C)N2CCOc3c(Cl)cc(-n4ccc5cc(F)ccc54)cc3C2)ccn1 (racemic) [Compound 217, 9-chloro-7-(5-fluoroindol-1-yl)-4-[1-(2-methoxypyridin-4-yl)ethyl]-3,5-dihydro-2H-1,4-benzoxazepine]",> 5000 nM
2,"C[C@@H]1c2cc(-n3ccc4cc(F)ccc43)cc(Cl)c2OCCN1Cc1cc[nH]c(=O)c1 (single isomer, unassigned) [Compound 236]",> 5000 nM
3,COc1nccc(CN2Cc3cc(-n4ccc5cc(F)ccc54)cc(Cl)c3OC[C@H]2C)n1 [Compound 10],500 to 1000 nM
4,C[C@@H]1COc2c(Cl)cc(-n3ccc4cc(F)ccc43)cc2CN1Cc1cc[nH]c(=O)n1 [Compound 12],500 to 1000 nM
5,"COc1ncc(CN2CCOc3c(Cl)cc(-n4cc(C(F)(F)F)c5ccccc54)cc3C2)cn1 [Compound 17, 9-chloro-4-[(2-methoxypyrimidin-5-yl)methyl]-7-[3-(trifluoromethyl)indol-1-yl]-3,5-dihydro-2H-1,4-benzoxazepine]",1000 to 5000 nM
6,COc1ncc(CN2CCOc3c(Cl)cc(-c4cccc5nccn45)cc3C2)cn1 [Compound 39],1000 to 5000 nM
7,"COc1ncc(CN2CCOc3c(Cl)cc(-c4ncc5ccccn45)cc3C2)cn1 [Compound 40, 9-chloro-7-{imidazo[1,5-a]pyridin-3-yl}-4-[(2-methoxypyrimidin-5-yl)methyl]-3,5-dihydro-2H-1,4-benzoxazepine]",1000 to 5000 nM
8,"COc1ncc(CN2CCOc3c(Cl)cc(-c4ncc5cc(Cl)ccn45)cc3C2)cn1 [Compound 41, 9-chloro-7-{7-chloroimidazo[1,5-a]pyridin-3-yl}-4-[(2-methoxypyrimidin-5-yl)methyl]-3,5-dihydro-2H-1,4-benzoxazepine]",500 to 1000 nM
9,"COc1ncc(CN2CCOc3c(Cl)cc(-n4ccc5c4CCCC5)cc3C2)cn1 [Compound 44, 9-chloro-4-[(2-methoxypyrimidin-5-yl)methyl]-7-(4,5,6,7-tetrahydroindol-1-yl)-3,5-dihydro-2H-1,4-benzoxazepine]",1000 to 5000 nM
10,"COc1ncc(CN2CCOc3c(Cl)cc(N4CCc5cc(F)ccc54)cc3C2)cn1 [Compound 45, 9-chloro-7-(5-fluoro-2,3-dihydroindol-1-yl)-4-[(2-methoxypyrimidin-5-yl)methyl]-3,5-dihydro-2H-1,4-benzoxazepine]",500 to 1000 nM
11,"COc1ncc(CN2CCOc3c(Cl)cc(N4CCc5cc(Cl)ccc54)cc3C2)cn1 [Compound 46, 9-chloro-7-(5-chloro-2,3-dihydroindol-1-yl)-4-[(2-methoxypyrimidin-5-yl)methyl]-3,5-dihydro-2H-1,4-benzoxazepine]",500 to 1000 nM
12,"COc1ncc(CN2CCOc3c(Cl)cc(N4Cc5ccc(F)cc5C4)cc3C2)cn1 [Compound 47, 9-chloro-7-(5-fluoro-1,3-dihydroisoindol-2-yl)-4-[(2-methoxypyrimidin-5-yl)methyl]-3,5-dihydro-2H-1,4-benzoxazepine]",1000 to 5000 nM
13,COc1ncc(CN2CCOc3c(Cl)cc(N4Cc5ccccc5C4=O)cc3C2)cn1 [Compound 48],> 5000 nM
14,"COc1ncc(CN2CCOc3c(Cl)cc(N4CCCc5cc(F)ccc54)cc3C2)cn1 [Compound 49, 9-chloro-7-(6-fluoro-3,4-dihydroquinolin-1(2H)-yl)-4-((2-methoxypyrimidin-5-yl)methyl)-2,3,4,5-tetrahydrobenzo[f][1,4]oxazepine]",> 5000 nM
15,"COc1ncc(CN2CCOc3c(Cl)cc(N4CCOc5cc(F)ccc54)cc3C2)cn1 [Compound 51, 9-chloro-7-(7-fluoro-2,3-dihydro-1,4-benzoxazin-4-yl)-4-[(2-methoxypyrimidin-5-yl)methyl]-3,5-dihydro-2H-1,4-benzoxazepine]",> 5000 nM
16,COc1ncc(CN2CCOc3c(Cl)cc(N4CCSc5ccccc54)cc3C2)cn1 [Compound 52],> 5000 nM
17,COc1ncc(CN2CCOc3c(Cl)cc(N4CCS(=O)(=O)c5ccccc54)cc3C2)cn1 [Compound 53],> 5000 nM

row,SMILES,IC50
1,COc1ncc(CN2CCOc3c(Cl)cc(-c4cccc5ccccc45)cc3C2)cn1 [Compound 54],1000 to 5000 nM
2,COc1ncc(CN2CCOc3c(Cl)cc(-c4cccc5c4CCCC5)cc3C2)cn1 [Compound 55],> 5000 nM
3,COc1ncc(CN2CCOc3c(Cl)cc(-c4coc5ccccc45)cc3C2)cn1 [Compound 56],1000 to 5000 nM
4,COc1ncc(CN2CCOc3c(Cl)cc(-c4cccc5c4OCCO5)cc3C2)cn1 [Compound 57],> 5000 nM
5,O=c1ncc(CN2CCOc3c(Cl)cc(-n4ccc5cc(C(F)(F)F)ccc54)cc3C2)c[nH]1 [Compound 60],1000 to 5000 nM
6,CN(C)c1ccc2c(ccn2-c2cc(Cl)c3c(c2)CN(Cc2cnc(=O)[nH]c2)CCO3)c1 [Compound 61],> 5000 nM
7,O=c1ncc(CN2CCOc3c(Cl)cc(-n4ccc5cc(Cl)ccc54)cc3C2)c[nH]1 [Compound 62],100 to 500 nM
8,O=c1ncc(CN2CCOc3c(Cl)cc(-n4ccc5c(F)c(F)ccc54)cc3C2)c[nH]1 [Compound 64],< 100 nM
9,O=c1ncc(CN2CCOc3c(Cl)cc(-n4ccc5c(F)c(Cl)ccc54)cc3C2)c[nH]1 [Compound 65],500 to 1000 nM
10,Cc1cc2cc(F)ccc2n1-c1cc(Cl)c2c(c1)CN(Cc1cnc(=O)[nH]c1)CCO2 [Compound 66],1000 to 5000 nM
11,Cc1cn(-c2cc(Cl)c3c(c2)CN(Cc2cnc(=O)[nH]c2)CCO3)c2ccc(F)cc12 [Compound 67],100 to 500 nM
12,O=c1ncc(CN2CCOc3c(Cl)cc(-n4ccc5ncccc54)cc3C2)c[nH]1 [Compound 68],500 to 1000 nM
13,O=c1ncc(CN2CCOc3c(Cl)cc(-n4ccc5cccnc54)cc3C2)c[nH]1 [Compound 69],> 5000 nM
14,"O=c1ncc(CN2CCOc3c(Cl)cc(-n4ccc5cc(F)cnc54)cc3C2)c[nH]1 [Compound 70, 5-((9-chloro-7-(5-fluoro-1H-pyrrolo[2,3-b]pyridin-1-yl)-2,3-dihydrobenzo[f][1,4]oxazepin-4(5H)-yl)methyl)pyrimidin-2(1H)-one]",1000 to 5000 nM
15,O=c1ncc(CN2CCOc3c(Cl)cc(-n4ccc5ccncc54)cc3C2)c[nH]1 [Compound 71],> 5000 nM
16,O=c1ncc(CN2CCOc3c(Cl)cc(-n4ccc5cc(Cl)ncc54)cc3C2)c[nH]1 [Compound 72],> 5000 nM
17,O=c1ncc(CN2CCOc3c(Cl)cc(-n4ccc5cnccc54)cc3C2)c[nH]1 [Compound 73],> 5000 nM

# Continued, values first:
row,IC50,SMILES
1,500 to 1000 nM,COc1ncc(CN2CCOc3c(Cl)cc(-n4ccc5cc(C)ccc54)cc3C2)cn1 [Compound 14]
2,> 5000 nM,COc1ncc(CN2CCOc3c(Cl)cc(-n4ccc5cc(C(F)(F)F)ccc54)cc3C2)cn1 [Compound 15]
3,500 to 1000 nM,COc1ncc(CN2CCOc3c(Cl)cc(-n4ccc5cc(C#N)ccc54)cc3C2)cn1 [Compound 16]
4,> 5000 nM,COc1ncc(CN2CCOc3c(Cl)cc(-n4ccc5cc(N(C)C)ccc54)cc3C2)cn1 [Compound 18]
5,> 5000 nM,COc1ccc2c(ccn2-c2cc(Cl)c3c(c2)CN(Cc2cnc(OC)nc2)CCO3)c1 [Compound 19]
6,500 to 1000 nM,COc1ncc(CN2CCOc3c(Cl)cc(-n4ccc5cc(Cl)ccc54)cc3C2)cn1 [Compound 20]
7,> 5000 nM,COc1ncc(CN2CCOc3c(Cl)cc(-n4ccc5cc(SC)ccc54)cc3C2)cn1 [Compound 21]
8,> 5000 nM,COc1ncc(CN2CCOc3c(Cl)cc(-n4ccc5cc(Br)ccc54)cc3C2)cn1 [Compound 22]
9,1000 to 5000 nM,COc1ncc(CN2CCOc3c(Cl)cc(-n4ccc5cc(F)c(F)cc54)cc3C2)cn1 [Compound 24]
10,500 to 1000 nM,COc1ncc(CN2CCOc3c(Cl)cc(-n4ccc5c(F)c(Cl)ccc54)cc3C2)cn1 [Compound 26]
11,500 to 1000 nM,COc1ncc(CN2CCOc3c(Cl)cc(-n4cc(Cl)c5cc(F)ccc54)cc3C2)cn1 [Compound 27]
12,> 5000 nM,COc1ncc(CN2CCOc3c(Cl)cc(-n4ccc5cc(F)c(Cl)cc54)cc3C2)cn1 [Compound 28]
13,> 5000 nM,COc1ncc(CN2CCOc3c(Cl)cc(-n4cc(Cl)c5cc(Cl)ccc54)cc3C2)cn1 [Compound 29]
14,1000 to 5000 nM,COc1ncc(CN2CCOc3c(Cl)cc(-n4c(C)cc5cc(F)ccc54)cc3C2)cn1 [Compound 30]
15,500 to 1000 nM,COc1ncc(CN2CCOc3c(Cl)cc(-n4cc(C)c5cc(F)ccc54)cc3C2)cn1 [Compound 31]
16,1000 to 5000 nM,COc1ncc(CN2CCOc3c(Cl)cc(-n4ccc5cccnc54)cc3C2)cn1 [Compound 32]
17,1000 to 5000 nM,"COc1ncc(CN2CCOc3c(Cl)cc(-n4ccc5cc(F)cnc54)cc3C2)cn1 [Compound 33, 9-chloro-7-(5-fluoro-1H-pyrrolo[2,3-b]pyridin-1-yl)-4-((2-methoxypyrimidin-5-yl)methyl)-2,3,4,5-tetrahydrobenzo[f][1,4]oxazepine]"
18,> 5000 nM,COc1ncc(CN2CCOc3c(Cl)cc(-n4ccc5cc(Cl)ncc54)cc3C2)cn1 [Compound 35]
19,> 5000 nM,COc1ncc(CN2CCOc3c(Cl)cc(-n4ccc5cnccc54)cc3C2)cn1 [Compound 36]
20,500 to 1000 nM,COc1ncc(CN2CCOc3c(Cl)cc(-n4ccc5ncccc54)cc3C2)cn1 [Compound 37]
21,1000 to 5000 nM,COc1ncc(CN2CCOc3c(Cl)cc(-n4ccc5nc(Cl)ccc54)cc3C2)cn1 [Compound 38]
22,> 5000 nM,COc1ncc(CN2CCOc3c(Cl)cc(-n4ccc5cncnc54)cc3C2)cn1 [Compound 42]
23,> 5000 nM,COc1ncc(CN2CCOc3c(Cl)cc(-n4ccc5nccnc54)cc3C2)cn1 [Compound 43]
24,1000 to 5000 nM,N#Cc1ccc2c(ccn2-c2cc(Cl)c3c(c2)CN(Cc2cnc(=O)[nH]c2)CCO3)c1 [Compound 59]

# From patent US12624024B2, “EP2 antagonist compounds” (Reservoir Neuroscience, Inc., priority 2021, dated 2026)
